Data: patent US10292960B2, “Anticancer agent comprising aminoacetonitrile compound as active ingredient” (PITNEY PHARMACEUTICALS PTY LIMITED, priority 2013, dated 2019)

Key:
[1] = system: oophoroma cell line (A2780); assay: Test for cell growth inhibitory activity against A2780 (epithelial ovarian cancer); format: cell-based; conditions: cultured 72 hr, sulforhodamine B
Procedure: An experiment was performed according to the method described in Ahmed SA et al., 1994. Journal of Immunological Methods 170: 211-224, or Boyed M R et al., 1989.
(§1) A cell suspension of oophoroma cell line (A2780) prepared to 2 to 3×10^3/well was added to a well microplate, a given amount of a test substance (0, 1.25, 2.5, 5, 10, 12.5, 20, 25, 50, 100 μM) was added to the culture medium, and the mixture was cultured for 72 hr. Thereafter, 0.4% sulforhodamine B was added to each well, and the absorbance at 570 nm was measured by a microplate reader. The cell growth inhibition ratio was calculated from the above-mentioned formula, and IC50 value was determined from the data. The same test was performed using HOSE cell (normal ovary cell line) as a comparison target instead of A2780 cell, and IC50 value was determined.

[2] = system: HOSE cell (normal ovary cell line); assay: Cell growth inhibitory activity against HOSE cell (comparison target); format: cell-based; conditions: cultured 72 hr, sulforhodamine B
Procedure: as §1

Row | IC50 [1] | Structure (SMILES) | IC50 [2]
1 | 13.3 µM | CC(C#N)(COc1ccc(C(F)(F)F)cc1)NC(=O)c1cccc(OC(F)(F)F)c1 (racemic) [1-29] | –
2 | 3.53 µM | CC(C#N)(COc1ccc(Cl)cc1)NC(=O)Cc1ccc(SC(F)(F)C(F)(F)C(F)(F)F)cc1 (stereo not drawn) [2-114] | 19.9 µM
3 | 3.77 µM | CC(C#N)(COc1ccc(C(F)(F)F)cc1)NC(=O)Cc1ccc(C(F)(F)C(F)(F)C(F)(F)F)cc1 (stereo not drawn) [2-109] | –
4 | 7.22 µM | CCCCCCCCOCC(C)(C#N)NC(=O)Cc1ccc(C(F)(F)F)cc1 (stereo not drawn) [4-1] | –
5 | 6.2 µM | CC(C)(C)C#Cc1ccc(OCC(C)(C#N)NC(=O)Cc2ccc(C(F)(F)F)cc2)cc1 (stereo not drawn) [2-120] | 10.4 µM
6 | 8.81 µM | CC(C)C(C#N)(COc1ccc(Cl)cc1)NC(=O)Cc1cccc(Cl)c1 (stereo not drawn) [2-27] | 15.8 µM
7 | 4.53 µM | CC(C#N)(COc1ccc(C#Cc2ccccc2)cc1)NC(=O)c1ccc(C(F)(F)F)cc1 (racemic) [1-25] | 15.3 µM
8 | 11.4 µM | CC(C)(C)C(C#N)(COc1ccc(C(F)(F)F)cc1)NC(=O)c1ccc(Cl)cc1Cl (racemic) [1-56] | –
9 | 10.3 µM | CC(C#N)(COc1ccc(C(F)(F)F)cc1)NC(=O)c1ccc(C(F)(F)C(F)(F)F)cc1 (racemic) [1-10] | 49.4 µM
10 | 6.97 µM | Cn1nc(C(F)(F)F)cc1C(=O)NC(C)(C#N)COc1ccc(Cl)cc1 (racemic) [1-39] | –
